According to patent EP0745595A1, “3-(3-Aryloxyphenyl)-1-(substituted methyl)-s-triazine-2,4,6-oxo or thiotrione herbicidal agents” (American Cyanamid Company, priority 1995, dated 1996):

What was measured:
Type in all cases: in vivo
CHENOPODIUM ALBUM, L. [1] = test: Postemergence herbicidal evaluation, CHEAL (Lambsquarters, Common)
Summary of the method: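 Seedlings of common lambsquarters (Chenopodium album) were raised in jiffy flats for roughly two weeks, then sprayed postemergence through a nozzle at 40 psi with test compound dispersed in 50/50 acetone/water containing 0.5% TWEEN®20 surfactant. Plants were kept on greenhouse benches under standard care and rated visually on a 0-9 scale versus controls.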

[2] = tested on: ABUTILON THEOPHRASTI, MEDIC.; test: Postemergence herbicidal evaluation, ABUTH (Velvetleaf)
Summary of the method: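 Velvetleaf (Abutilon theophrasti) seedlings were raised in jiffy flats for about two weeks and then sprayed postemergence. The test compound was dispersed in a 50/50 acetone/water mixture containing 0.5% TWEEN®20 and applied through a nozzle operating at 40 psi. Plants were kept on greenhouse benches and rated 0-9 four to five weeks after treatment.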

CASSIA OBTUSIFOLIA, L. = test: Postemergence herbicidal evaluation, CASOB (Sicklepod); set-up: key to CASOB rating / Herbicidal effect rating, CASOB / CASOB: 0-9 visual rating scale vs untreated control
Summary of the method: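 Two-week-old seedlings sprayed with compound in 50/50 acetone/water plus 0.5% TWEEN 20 at about 0.125–0.500 kg/ha via nozzle at 40 psi. Kept in greenhouse; rated visually 4–5 weeks after treatment on a 0–9 scale versus untreated control, averaging repeat tests.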

[3] = tested on: AMBROSIA ARTEMISIIFOLIA, L.; test: Postemergence herbicidal evaluation, AMBEL (Ragweed, Common)
Summary of the method: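 Common ragweed (Ambrosia artemisiifolia) seedlings were raised in jiffy flats for roughly two weeks, then sprayed postemergence through a nozzle at 40 psi with the test compound dispersed in 50/50 acetone/water carrying 0.5% TWEEN®20. The plants were kept on greenhouse benches under conventional care. Four to five weeks later, injury was rated visually on a 0-9 scale, and repeat tests were averaged.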

[4] = tested on: TRITICUM AESTIVUM, CV. APOLLO; test: Postemergence herbicidal evaluation, TRZAWO (Wheat, Winter, CV. APOLLO)
Summary of the method: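 Wheat seedlings, raised in jiffy flats for roughly two weeks, were sprayed postemergence with test compound dispersed in a 50/50 acetone/water mixture containing 0.5% TWEEN®20 surfactant, delivered through a nozzle at 40 psi. Plants were then kept on greenhouse benches under conventional care. Four to five weeks after treatment they were rated visually on a 0-9 scale against an untreated control, and ratings from repeated tests were averaged.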

CHENOPODIUM ALBUM, L. [5] = test: Preemergence herbicidal evaluation, CHEAL (Lambsquarters, Common); details: for CHEAL herbicidal rating: rated four to five weeks after treatment
Summary of the method: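 Preemergence, greenhouse: seed + potting soil sown on ~1 inch soil in cups; aqueous acetone spray, ~0.125–0.50 kg/ha equivalent; rated 0-9 vs control at 4–5 wk.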

IPOMOEA SPP. = test: Postemergence herbicidal evaluation, IPOSS (Morningglory spp.)
Summary of the method: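 Seedlings of morningglory (Ipomoea spp.) were raised in jiffy flats for roughly two weeks. They were then sprayed postemergence through a nozzle at 40 psi with test compound dispersed in 50/50 acetone/water containing 0.5% TWEEN®20 surfactant. Plants were kept on greenhouse benches under standard care and visually rated 0-9 against controls four to five weeks after treatment.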

[6] = tested on: SETARIA VIRIDIS, (L) BEAU; test: Postemergence herbicidal evaluation, SETVI (Foxtail, Green); set-up: key to SETVI rating / Herbicidal effect rating, SETVI / SETVI: 0-9 visual rating scale vs untreated control
Summary of the method: (§1)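 Greenhouse postemergence test. Seedlings (~2 wk) sprayed at 40 psi; dose ~0.125–0.500 kg/ha in acetone/water (1:1), 0.5% TWEEN 20. Scored 0–9 at 4–5 wk.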

[7] = tested on: ECHINOCHLOA CRUS-GALLI, (L) BEAU; test: Postemergence herbicidal evaluation, ECHCG (Barnyardgrass); set-up: key to ECHCG rating / Herbicidal effect rating, ECHCG / ECHCG: 0-9 visual rating scale vs untreated control
Summary of the method: as §1

[8] = tested on: ORYZA SATIVA, L. TEBONNET; test: Rice tolerance to post-transplant applications under flooded paddy conditions, ORYSAT (Rice, Tebonnet); details: for Herbicidal effect rating, ORYSAT: post-transplant rice, 3-4 weeks after treatment; for ORYSAT: post-transplanted rice
Summary of the method: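 Two ten-day-old Tebonnet rice seedlings were transplanted into silt loam and kept flooded 1.5 to 3 cm deep. Three days after transplanting, the flood surface received the compound in aqueous/acetone 50/50 v/v at about 0.5, 0.25, 0.125 or 0.063 kg/ha. Injury was rated visually on a 0-9 scale versus control after 3-4 weeks.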

ZEA MAYS L. = test: Postemergence herbicidal evaluation, ZEAMX (Corn, Field)
Summary of the method: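 Corn seedlings were raised in jiffy flats for roughly two weeks, then sprayed postemergence with the test material dispersed in 50/50 acetone/water containing 0.5% TWEEN®20 surfactant, using a nozzle at 40 psi. Plants were kept on greenhouse benches under standard care and visually rated on a 0-9 scale four to five weeks after treatment.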

## Methyl 3-{2-[(2-chloro-α,α,α,-trifluoro-p-tolyl)oxy]phenyl}tetrahydro-5-methyl-2,4,6-trioxo-s-triazine-1(2H)-acetate [Compound 28]
CHENOPODIUM ALBUM, L. [1]; Rate 0.063 kg/ha
  CHEAL: 6.0
CHENOPODIUM ALBUM, L. [1]; Rate 0.125 kg/ha
  CHEAL: 6.0
  CHEAL rating: 6.0
CHENOPODIUM ALBUM, L. [1]; Rate 0.250 kg/ha
  CHEAL: 8.0
  CHEAL rating: 8.0
CHENOPODIUM ALBUM, L. [1]; Rate 0.500 kg/ha
  CHEAL: 9.0
  CHEAL rating: 9.0
[2]; Rate 0.063 kg/ha
  ABUTH: 4.0
[2]; Rate 0.125 kg/ha
  ABUTH: 6.0
  ABUTH rating: 6.0
[2]; Rate 0.250 kg/ha
  ABUTH: 7.0
  ABUTH rating: 7.0
[2]; Rate 0.500 kg/ha
  ABUTH: 9.0
  ABUTH rating: 9.0
CASSIA OBTUSIFOLIA, L.; Rate 0.063 kg/ha
  CASOB: 3.0
CASSIA OBTUSIFOLIA, L.; Rate 0.125 kg/ha
  CASOB: 5.0
  CASOB rating: 5.0
CASSIA OBTUSIFOLIA, L.; Rate 0.250 kg/ha
  CASOB: 6.0
  CASOB rating: 6.0
CASSIA OBTUSIFOLIA, L.; Rate 0.500 kg/ha
  CASOB: 6.5
  CASOB rating: 6.5
[3]; Rate 0.063 kg/ha
  AMBEL: 3.0
[3]; Rate 0.125 kg/ha
  AMBEL: 4.0
  AMBEL rating: 4.0
[3]; Rate 0.250 kg/ha
  AMBEL: 6.0
  AMBEL rating: 6.0
[3]; Rate 0.500 kg/ha
  AMBEL: 7.0
  AMBEL rating: 7.0
[4]; Rate 0.063 kg/ha
  TRZAWO: 1.5
[4]; Rate 0.125 kg/ha
  TRZAWO: 2.0
  TRZAWO rating: 2.0
[4]; Rate 0.250 kg/ha
  TRZAWO: 2.0
  TRZAWO rating: 2.0
[4]; Rate 0.500 kg/ha
  TRZAWO: 2.0
  TRZAWO rating: 2.0
CHENOPODIUM ALBUM, L. [5]; Rate 0.125 kg/ha
  CHEAL: 3.0
  CHEAL herbicidal rating: 3.0
CHENOPODIUM ALBUM, L. [5]; Rate 0.250 kg/ha
  CHEAL: 6.0
  CHEAL herbicidal rating: 6.0
CHENOPODIUM ALBUM, L. [5]; Rate 0.500 kg/ha
  CHEAL: 7.0
  CHEAL herbicidal rating: 7.0
CHENOPODIUM ALBUM, L. [5]; Rate 1.000 kg/ha
  CHEAL: 9.0
IPOMOEA SPP.; Rate 0.063 kg/ha
  IPOSS: 6.0
IPOMOEA SPP.; Rate 0.125 kg/ha
  IPOSS: 6.0
  IPOSS rating: 6.0
IPOMOEA SPP.; Rate 0.250 kg/ha
  IPOSS: 8.0
  IPOSS rating: 8.0
IPOMOEA SPP.; Rate 0.500 kg/ha
  IPOSS: 9.0
  IPOSS rating: 9.0
[6]; Rate 0.063 kg/ha
  SETVI: 1.0
[6]; Rate 0.125 kg/ha
  SETVI: 1.0
  SETVI rating: 1.0
[6]; Rate 0.250 kg/ha
  SETVI: 2.0
  SETVI rating: 2.0
[6]; Rate 0.500 kg/ha
  SETVI: 4.0
  SETVI rating: 4.0
[7]; Rate 0.063 kg/ha
  ECHCG: 0.0
[7]; Rate 0.125 kg/ha
  ECHCG: 0.0
  ECHCG rating: 0.0
[7]; Rate 0.250 kg/ha
  ECHCG: 0.0
  ECHCG rating: 0.0
[7]; Rate 0.500 kg/ha
  ECHCG: 2.0
  ECHCG rating: 2.0
[8]; 0.063 kg/ha
  Herbicidal effect rating, ORYSAT: 0.0
[8]; 0.125 kg/ha
  Herbicidal effect rating, ORYSAT: 1.0
[8]; 0.250 kg/ha
  Herbicidal effect rating, ORYSAT: 2.0
[8]; 0.500 kg/ha
  Herbicidal effect rating, ORYSAT: 2.0
[8]; Rate 0.250 kg/ha
  ORYSAT: 2.0
[8]; Rate 0.500 kg/ha
  ORYSAT: 2.0
[8]; Rate 1.000 kg/ha
  ORYSAT: 3.0
ZEA MAYS L.; Rate 0.063 kg/ha
  ZEAMX: 1.5
ZEA MAYS L.; Rate 0.125 kg/ha
  ZEAMX: 2.5
  ZEAMX rating: 2.5
ZEA MAYS L.; Rate 0.250 kg/ha
  ZEAMX: 4.0
  ZEAMX rating: 4.0
ZEA MAYS L.; Rate 0.500 kg/ha
  ZEAMX: 4.5
  ZEAMX rating: 4.5
